Residues, ends and D or L forms follow the SMILES beside them. *: point of attachment. Piv = CC(C)(C)C(=O)* Some results are limits rather than exact numbers.

In the case of `Cc1cc(-c2cccc(C(F)(F)F)c2)n2ccnc2n1`, the melting point (as a rule, the temperature, or range, at which the solid turns liquid) is 170 to 172 °C.

In turn, `CCN1c2ncc(C=Cc3cccc(F)c3)cc2C(=O)N(C)c2ccc(Cl)nc21` returned a melting point of 130 to 131 °C.

Consider `Cc1c(C(=O)c2ccc(F)cc2)n(N2C(=O)c3ccccc3C2=O)c2ccccc12`, for which the melting point was 227 to 228 °C.

For `CN(C)Cc1nncn1-c1ccc(Br)cc1C(=O)c1ccccn1`, the melting point is 145 to 146 °C.

For `CCc1nc2c(N)nc3ccccc3c2n1CCCNOC`, the melting point lay within 210 to 213 °C.

In turn, `CC(C)(C)[C@@H]1O[C@@H](O)[C@@H]2[C@H]1C2(C)C` returned a melting point of 126 °C.

The compound `CCn1ncc2c3noc(-c4ccc(Cl)cc4)c3cnc21` displayed a melting point of 248 to 250 °C.

On to `CCOC(=O)C1=C(COCCOc2ncccn2)NC(C)=C(C(=O)OC)C1c1ccccc1Cl` (stereo unspecified), for which the melting point worked out at 101 °C.

`CCOC(=O)c1cn(N(C)C)c2ccccc2c1=O` gave a melting point of 119 to 120 °C.

In turn, `CCOC(=O)c1ccc(-c2nc(CCl)c(C)o2)o1` yielded a melting point of 117 to 118 °C.

As to `CCOC(=O)Cc1nn(C(c2ccccn2)c2ncno2)c(=O)c2ccccc12` (stereo unspecified), the melting point is 118 to 128 °C.

`O=C(O)C1c2cc(Br)ccc2COc2ccc(Br)cc21` (stereo unspecified) returned a melting point of 179 to 182 °C.

For `COCCc1ccc(OCC(O)CNC(C)COc2ccc(O)c(C(N)=O)c2)cc1` (stereo unspecified), the melting point was in the range of 139 to 142 °C.

In turn, `CC1Cc2c(n(-c3ccc(Cl)cc3)c3ncccc3c2=O)O1` (stereo unspecified) came in with a melting point of 227 to 228 °C.

In turn, `CN1CCOc2cc([N+](=O)[O-])ccc2C1=O` showed a melting point of 130 to 132 °C.

`CCOC(=O)/C=C(\c1cccc(C(F)(F)F)c1)c1ccc(OC)c(OC)c1`: the melting point was in the range of 72 to 74 °C.

The compound `CCCCc1nc(SC)cn1Cc1ccc(-c2ccccc2S(=O)(=O)N=CN(C)C)cc1` yielded a melting point of 148 °C.

`Cc1nnc(OC(=O)N2CCN(C)CC2)n1-c1ccc(Cl)cn1` had a melting point of 214 to 216 °C.

On to `CS(=O)(=O)c1ccc(-c2cc(-c3ccc(F)cc3)n3c2CCC3)cc1`, for which the melting point is 176 to 179 °C.

As to `OCC1OC(n2cnc3c(NNC4CCSc5ccccc54)ncnc32)C(O)C1O` (stereo unspecified), the melting point was in the range of 105 to 107 °C.

As for `CCCCCCC(C)(O)CCc1ccc(O)c(O)c1` (stereo unspecified), the melting point was 81 to 83 °C.

In turn, `C1=Cc2ccccc2C(C2CCN(C3CCCCC3)CC2)c2ccccc21` came in with a melting point of 162 to 164 °C.

`CCNC(=O)[C@@H]1CCCN1C(=O)[C@H](C)NC(=O)C(C)(C)C` (Piv-Ala-Pro-NHEt): the melting point lay in the range of 94 to 96 °C.

In the case of `COc1ccc(-n2c(-c3ccc(Cl)cc3Cl)nc(C(=O)O)c2C)cc1`, the melting point is 189 to 191 °C.

The compound `CCCCC(=O)c1ccc(OCCCC(=O)O)c(Cl)c1Cl` had a melting point of 92 to 94 °C.

The compound `CC(=O)c1ccc2cc(N3CCN(C(=O)OC(C)(C)C)CC3)ccc2c1` showed a melting point of 153 to 154 °C.

On to `Nc1cccnc1Nc1ccccc1C(=O)c1ccc(F)cc1`, for which the melting point came out at 122 °C.

Take `Cn1cc(C(=O)N=C=O)c([N+](=O)[O-])n1`: the melting point lay within 55 to 59 °C.

`Nc1nc(Cl)cc(Oc2ccc3c(C(=O)Nc4cccc(C(F)(F)F)c4)cnn3c2)n1` registered a melting point of 219 to 221 °C.

Compound `COc1ccc2c(c1)NC1(CCN(Cc3ccccc3)CC1)c1cccn1-2` showed a melting point of 123 to 124 °C.

`Cn1cc(SC(F)(F)F)c(N)n1` returned a melting point of 138 to 140 °C.

As for `COC(=O)c1cncn1C1c2ccccc2C2OC2C1(C)C` (stereo unspecified), the melting point was 60 to 68 °C.

As to `Cc1noc(NS(=O)(=O)c2cc(Br)c(Br)s2)c1Br`, the melting point is 153 to 155 °C.

For `CC(=O)N(CC(=O)O)c1ccccc1C(=O)O`, the melting point was 206 °C.

Regarding `COc1ccc(N)c(C(=O)CS(=O)(=O)N(C)C)c1`, the melting point lay within 198 to 200 °C.

For the compound `Cc1cccc(Nn2cnc(C)c2C)c1`, the melting point was determined as 144 °C.

In turn, `O=C1NC(=O)C(Cc2ccc(OCc3nc4cccnc4n3-c3ccccc3)cc2)S1` (stereo unspecified) registered a melting point of 88 to 91 °C.

Compound `C[C@H]1C(=O)CCN1c1ccc(C#N)c2ccccc12` had a melting point of 113 to 114 °C.

As to `CNC(=O)C(Cc1ccc(OC)cc1)NC(=O)CC(SC(C)=O)C(CC(C)C)C(N)=O` (stereo unspecified), the melting point was in the range of 235 to 240 °C.

In turn, `COc1ccc(C(=O)C=CC(=O)O)c(OC)c1OC` returned a melting point of 100 °C.

On to `Cc1ccc2oc(=O)c(C(=O)Oc3cc([N+](=O)[O-])ccc3[N+](=O)[O-])cc2c1`, for which the melting point lay within 225 to 229 °C.

On to `OCC1CN(Cc2ccccc2)C(c2ccccc2)O1` (stereo unspecified), for which the melting point worked out at 100 °C.

With `COc1ccc(-c2ccc(C(=O)O)cc2)cc1-c1ccc2c(c1)C(C)(C)CCC2(C)C`, the melting point is 251 to 255 °C.

In turn, `Cc1ccc2c(c1)cc(CCCC(=O)O)n2S(=O)(=O)c1ccc2ncsc2c1` came in with a melting point of 128 °C.

In turn, `CCCCc1nc(C(=O)O)c(C(=O)O)n1Cc1ccc(I)cc1` registered a melting point of 98 to 99 °C.

`N#Cc1ccc(N(N)Cc2ccc(Br)cc2)cc1` registered a melting point of 90 °C.

`CN(CCCC(=O)Nc1ccc2[nH]ncc2c1)Cc1ccccc1` gave a melting point of 115 to 117 °C.

`C/C=C\NC(=O)c1c(Cl)cccc1[Si](C)(C)C` gave a melting point of 101 to 102 °C.

As to `CC1(C)CC(c2ccc(F)cc2)=C(/C=C/[C@H]2C[C@H](O)CC(=O)O2)C(C)(C)C1` (relative stereo), the melting point fell in the range of 121 to 122 °C.

In turn, `CC(=O)Nc1ccc2c(c1)S(=O)(=O)NCN2C1CC1` showed a melting point of 230 to 232 °C.

`Cc1csn(-c2ccc(Cl)c(Cl)c2)c1=O` returned a melting point of 160 to 161 °C.

For `N#Cc1ccccc1Sc1ccc([N+](=O)[O-])cc1`, the melting point was in the range of 151 to 153 °C.

For the compound `Oc1ccccc1-c1nc(-c2ccccc2)no1`, the melting point was in the range of 156 to 158 °C.

Regarding `Cn1c(-c2ccccc2)c(C(=O)CCn2ccnc2)c2ccccc21`, the melting point was 159 to 162 °C.

On to `CCOC(=O)C1=Cc2ccc(OCc3ccccc3)cc2OCC1`, for which the melting point is 75 to 76 °C.

`CCOC(=O)Nc1ccc(C(=O)CCC(=O)O)cc1`: the melting point lay within 206 to 207 °C.

As to `COc1cc2c(cc1OC)CN(c1nc(N)nc3cc(OC)c(OC)cc13)CC2`, the melting point worked out at 245 °C.

Consider `COc1ccc(-c2ccc3c(c2)CCCc2c-3nc3ccc(F)cc3c2C(=O)O)cc1`, for which the melting point was over 300 °C.

As to `CC(=NNc1ccc(-c2c[nH]c(=O)cn2)cc1)c1ccncc1`, the melting point was 175 to 179 °C.

Compound `CCCc1cc(-c2csc(-c3ccc(OCC)c(OCC)c3)n2)cc(C(=O)O)c1O` returned a melting point of 179 to 180 °C.

`Cc1cc2cc(CN3CCCC3)cnc2cc1NC(=O)c1ccc(-c2ccc(C(F)(F)F)cc2)cc1` had a melting point of 216 to 219 °C.

On to `COc1ccc(CNC(=O)c2cc3c(=O)n(CCS(=O)(=O)c4ccccc4)c(=O)n(C)c3s2)cc1`, for which the melting point is 118 to 121 °C.

As for `CCCCCCCCCCNC(=O)CCCO`, the melting point lay within 74 to 75 °C.

The compound `COc1cc(OC)c(CSC(C)(C)CCO)c(OC)c1` gave a melting point of 69 to 72 °C.

In turn, `CNS(=O)(=O)Oc1ccc2c(c1)C(C)(C)C(OC)O2` (stereo unspecified) showed a melting point of 89 to 91 °C.

`Cc1cccc(-c2[nH]c(C(C)C)nc2-c2ccc(F)c(-c3cc[nH]n3)c2)n1` had a melting point of 195 to 198 °C.

Take `CCOc1cc(OCC)c([N+](=O)[O-])c(OCC)c1[N+](=O)[O-]`: the melting point was 105 °C.

For `COc1cc(Nc2c(C#N)cnc3cc(-c4cc(CN5CCOCC5)c(CN5CCOCC5)s4)ccc23)c(Cl)cc1Cl`, the melting point fell in the range of 118 to 125 °C.

For `CCNC(=O)c1cc2ccc(OC)cc2n1CCNC(C)=O`, the melting point was 135 to 136 °C.

`Cc1cncn1CC(O)c1ccccc1` (stereo unspecified) showed a melting point of 193 °C.

Compound `CCOC(=O)CCCn1c(C(=O)C2CCN(CCC3(c4ccc(Cl)c(Cl)c4)CCN(C(=O)c4cc(OC)c(OC)c(OC)c4)C3)CC2)nc2ccccc21` (stereo unspecified) yielded a melting point of 58 to 65 °C.

`CCOC(=O)C1=C(C)NC2=C(C(=O)OC2)C1c1ccccc1Cl` (stereo unspecified) came in with a melting point of 211 to 212 °C.

Turning to `CC(=O)Nc1ccc(C(=O)NC2CCN(C3CCCCC3)C2)cc1` (stereo unspecified), the melting point lay within 184 to 186 °C.

Consider `CCn1cc(C(=O)NCc2ccc(Cl)cc2)c(=O)c2cc(C#CCOC(=O)CN3CCOCC3)sc21`, for which the melting point was 168 to 170 °C.

Turning to `CC(=O)CCCN1CCC(NC(=O)c2cc(Cl)c(N)c3c2OC(C)(C)C3)CC1`, the melting point was determined as 119 °C.

With `NC(=O)N(O)CCOCc1ccsc1`, the melting point lay within 99 to 100 °C.

Turning to `CCOc1noc2c1C(=O)CCC2`, the melting point was 98 to 99 °C.

The compound `O=C(NN1CCNC1=O)c1cc(=O)c(O)c[nH]1` gave a melting point of 270 to 275 °C.

For `CCNc1cccc2c(S(=O)(=O)Nc3ncc(Br)nc3OC)cccc12`, the melting point lay within 216 to 218 °C.

The compound `O=C(CCCCCN1CCN(c2ccccc2)CC1)Nc1ccc(O)cc1` showed a melting point of 157 to 159 °C.

`CCON=C(C(C)=NOCc1ccccc1C(=COC)C(=O)OC)c1ccc(Oc2ccc(Cl)cc2)cc1` registered a melting point of 87 to 89 °C.

In the case of `CCc1cc(C(C)=O)nn1-c1ccc([N+](=O)[O-])cc1`, the melting point is 93 to 95 °C.

As for `CCc1nc2c(OCc3ccccc3)cc(Br)cc2n1C`, the melting point was in the range of 111 to 115 °C.

`CC(C)(C)OC(=O)COc1ccc(C(=O)O)cc1OCC(=O)OC(C)(C)C` gave a melting point of 118 to 120 °C.

Take `CCOC(=O)N1CCC(N=c2oc3ncnc(N)c3n2Cc2ccc(F)cc2)CC1`: the melting point was 175 °C.

For `CCCCc1nn(-c2ccc(C(F)(F)F)cn2)cc1CCCO`, the melting point fell in the range of 93 to 94 °C.

The compound `CN(C)c1cncc(I)n1` gave a melting point of 46 to 48 °C.

`CCCCCCCCCCCCCCCCCCNC(=O)CC[Si](OCC)(OCC)OCC` showed a melting point of 50 to 52 °C.

Regarding `CCC(=O)OCC(=O)Nc1nc2ccc(OC)cc2s1`, the melting point fell in the range of 145 to 147 °C.

`O=C(O)COc1cccc2c1CCCC2CCOC(=O)N(c1ccccc1)c1ccccc1` (stereo unspecified): the melting point was found to be 145 °C.

`C=CCN(C)C(=S)Nc1ccccc1CC(=O)OC` showed a melting point of 46 to 47 °C.

Values taken from a melting point compilation (Tetko et al.; mined from patent text by program, amines drawn as free bases though some values may be those of a salt).
